The source of these data is PMC9115111, “Metalloprotease Gp63-Targeting Novel Glycoside Exhibits Potential Antileishmanial Activity” (Frontiers in Cellular and Infection Microbiology, 2022).

Series [1] concerns L. donovani promastigotes (AG83 strain). The experiment in a line: LDH cytotoxicity assay on promastigotes, AG83 strain. The series is classed as cell-based, Leishmania donovani. To be noted: Leishmania donovani; Table 1; activity against promastigotes. As to the method: Promastigote forms of L. donovani (MHOM/IN/1983/AG83) were cultured at 26°C in M199 (GIBCO, India), pH 7.4, supplemented with 10% (v/v) inactivated fetal bovine serum (FBS, GIBCO, India) and 0.02 mg/ml gentamycin (Life Technologies, USA). The clinical isolate of PKDL, BS12, was obtained as a gift from Prof. Mitali Chatterjee [Department of Pharmacology, Institute of Postgraduate Medical Education and Research (IPGMER), Kolkata, India]. BS12 was routinely cultured at 22°C in M199 (GIBCO, India) with 100 U/ml penicillin-streptomycin (Gibco, Invitrogen, Thermo Fisher Scientific, NY, USA), 8 μM hemin (4 mM stock made in 50% triethanolamine) (Sigma, USA), 25 mM 4-(2-hydroxyethyl)-1-piperazineethanesulfonic acid (HEPES), supplemented with 10% heat-inactivated FBS (GIBCO, India). Cultures were maintained between 10^6 and 10^7 cells/ml for continuous exponential growth. In addition, 1 × 10^6 cells/ml parasite count was constantly maintained for all the experiments ([Ramu et al., 2017]).
All the compounds were dissolved in dimethyl sulfoxide (DMSO) (Sigma-Aldrich) for 1 mM stock solution and were screened against promastigotes at a concentration of 5 µM. For Glycosides (Gly) 2, 6, and 8, a range of concentrations starting from 100 nM to 100 µM were screened against promastigote forms of parasite and mammalian cells. Parasites (AG83 and PKDL strain) treated with amphotericin B (3 µg/ml) (Sigma-Aldrich) were maintained as the positive control.
AG83 strain of L. donovani were exposed to various Gly compound concentrations (100 nM–100 µM) in a 96-well microtiter plate (100 µl/well volume) and were incubated for 72 h at 26°C. Finally, lactate dehydrogenase (LDH) cytotoxic assay was performed as per standard protocol (CytoTox 96 Non-Radioactive Cytotoxicity Assay-Promega, USA). The percent cytotoxicity of test compounds was calculated by normalizing with amphotericin B as 100%. Further percentage growth inhibition was calculated using the formula:
% Growth Inhibition = Gly treated LDH activity- Spontaneous LDH activity
/Maximum LDH activity- Spontaneous LDH activity * 100
As per the formula, the spontaneous LDH Activity = activity of the untreated cells and the maximum LDH activity = activity of the amphotericin B-treated cells. IC50 value for Gly2, 6, and 8 treated was generated for AG83 and PKDL strain of L. donovani using sigmoidal dose–response model with nonlinear regression tool ([Ramu et al., 2017]).

The test system of series [2] is promastigotes of clinical isolate of PKDL strain, BS12 of L. donovani. Put plainly: LDH cytotoxicity assay on promastigotes of clinical PKDL isolate BS12. The series is classed as cell-based. To be noted: Leishmania donovani, LDH assay 72 h. As for the experimental part:
Promastigote forms of L. donovani (MHOM/IN/1983/AG83) were cultured at 26°C in M199 (GIBCO, India), pH 7.4, supplemented with 10% (v/v) inactivated fetal bovine serum (FBS, GIBCO, India) and 0.02 mg/ml gentamycin (Life Technologies, USA). The clinical isolate of PKDL, BS12, was obtained as a gift from Prof. Mitali Chatterjee [Department of Pharmacology, Institute of Postgraduate Medical Education and Research (IPGMER), Kolkata, India]. […]
AG83 strain of L. donovani were exposed to various Gly compound concentrations (100 nM–100 µM) in a 96-well microtiter plate (100 µl/well volume) and were incubated for 72 h at 26°C. […] The percent cytotoxicity of test compounds was calculated by normalizing with amphotericin B as 100%. Further percentage growth inhibition was calculated using the formula: […]
We further evaluated the effect the Gly2 on the clinical isolate of PKDL strain, BS12 of L. donovani ([Sengupta et al., 2019]). […] Along with Gly2, we also evaluated the cytotoxic effects of 12 compounds on L. donovani promastigotes derived from clinical isolates of PKDL strain at 5 µM ( Supplementary Figure S2 ).

Series [3] relates to L. donovani promastigotes. The experiment in a line: DCFDA estimation of reactive oxygen species in promastigotes. The series is classed as cell-based, Leishmania donovani. To be noted: Gly2-treated promastigotes, 72 h. As to the method: The redox homeostasis of promastigotes was monitored both qualitatively and quantitively by 2',7'-dichlorodihydrofluorescein diacetate (DCFDA) (Life Technologies, USA) staining. The untreated and […]-treated promastigotes (1 × 10^6 cells/ml) were cultured for 72 h. Following incubation, the parasites were harvested, washed with PBS, and stained with H2DCFDA (20 μM) for 20 min at 37°C. Excess stain was removed by washing with PBS, and samples were resuspended in PBS (50 μl) followed by imaging. Fluorescence intensity was determined using an excitation filter at 485 nm and an emission filter at 535 nm using confocal microscope (Nikon Ti eclipse, USA). The samples were also analyzed through BD FACS diva ([Shivappagowdar et al., 2019]).

Another series deals with MDCK cells. Put plainly: MTT cell viability assay on MDCK cells. The series is classed as cell-based. As to the method:
The J774.A1 murine macrophage cells were grown in Roswell Park Memorial Institute (RPMI) 1640 medium in the presence of 10% (v/v) FBS and 100 U/ml penicillin−100 µg/ml streptomycin (Gibco, Invitrogen, Thermo Fisher Scientific, NY, USA) at 37°C (humidified) and 5% CO2. […] Madin–Darby canine kidney (MDCK) cells were obtained from the National Centre for Cell Science, Pune, India. MDCK cells were derived from the kidney tissue of an adult female Cocker Spaniel. These were grown in Dulbecco’s modified Eagle’s minimal essential medium (DMEM) in the presence of 10% (v/v) FBS and 100 U/ml penicillin−100 µg/ml streptomycin (Gibco, Invitrogen, Thermo Fisher Scientific, NY, USA) at 37°C (humidified) and 5% CO2 ([Ayana et al., 2018]; [Shivappagowdar et al., 2021]).
All the compounds were dissolved in dimethyl sulfoxide (DMSO) (Sigma-Aldrich) for 1 mM stock solution and were screened against promastigotes at a concentration of 5 µM. […]
To evaluate the cytotoxic effects of 12 compounds on L. donovani promastigotes, LDH assay was performed. This assay involves the reduction of tetrazolium salts to formazan during LDH-mediated catalysis of lactate to pyruvate, which can be detected at 490 nM. […] The selectivity index (SI) for the compound was calculated as the ratio between cytotoxicity (CC50) and activity (IC50) against promastigotes ( Table 1 ).
(Tetrazolium assays rely on reduction of a dye to a coloured formazan, in cell work by metabolically active cells.)

One may read the IC50 as the midpoint of a concentration-inhibition curve. On to `CC(C)CCOC1O[C@H](CO)[C@@H](O)[C@H](O)[C@H]1O` (stereo partly shown) [Gly2], for which the IC50 is 1130 nM in series [1] and 1970 nM in series [2]. Also, the “% DCFDA+ parasites” value in series [3] is listed as ~ 50%. In the series on MDCK cells, the “cytotoxicity in MDCK cells” value was “minimum level of cytotoxicity”.
